The assay deals with Plasma kallikrein (Homo sapiens, UniProt P03952). Briefly: Inhibitory Activity Assay: Example compounds were evaluated for inhibition of the human activated kallikrein enzyme in two formats of an assay employing a fluorogenic peptide substrate. In one assay format, the concentrations of reagents were as follows: 20 mM Tris pH 7.5, 1 mM EDTA, 150 mM sodium chloride, 0.1% PEG-400, 0.1% Triton X-100, 500 pM activated kallikrein enzyme, 300 uM Pro-Phe-Arg-7-amido-4-methylcoumarin substrate. Prior to reaction initiation with substrate, enzyme and inhibitors were preincubated for 30 min at RT. After initiation with substrate, reactions were incubated for 10 min at RT and fluorescence emission at 460 nm from 380 nm excitation measured with a microplate reader. In another assay format, the concentrations of reagents were as follows: 20 mM Tris pH 7.5, 1 mM EDTA, 150 mM sodium chloride, 0.1% PEG-400, 0.1% Triton X-100, 5 pM activated kallikrein enzyme, 300 uM Pro-Phe-Arg-7-amido-4-methylcoumarin substrate. Prior to reaction initiation with substrate, enzyme and inhibitors were preincubated for 30 min at RT. After initiation with substrate, reactions were incubated for 18 h at RT and fluorescence emission at 460 nm from 380 nm excitation measured with a microplate reader.
Chain of Plasma kallikrein (P03952 20-390 limits assumed): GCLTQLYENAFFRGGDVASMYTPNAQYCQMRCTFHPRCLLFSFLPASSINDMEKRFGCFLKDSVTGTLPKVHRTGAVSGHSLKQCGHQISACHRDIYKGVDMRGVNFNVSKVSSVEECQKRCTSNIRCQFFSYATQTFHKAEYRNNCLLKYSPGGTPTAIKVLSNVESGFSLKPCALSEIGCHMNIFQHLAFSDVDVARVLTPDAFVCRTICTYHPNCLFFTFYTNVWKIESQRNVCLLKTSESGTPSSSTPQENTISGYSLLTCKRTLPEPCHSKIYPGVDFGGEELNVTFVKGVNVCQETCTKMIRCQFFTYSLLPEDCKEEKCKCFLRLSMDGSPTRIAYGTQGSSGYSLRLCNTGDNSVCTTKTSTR
Chain of Plasma kallikrein (P03952 391-638 limits assumed): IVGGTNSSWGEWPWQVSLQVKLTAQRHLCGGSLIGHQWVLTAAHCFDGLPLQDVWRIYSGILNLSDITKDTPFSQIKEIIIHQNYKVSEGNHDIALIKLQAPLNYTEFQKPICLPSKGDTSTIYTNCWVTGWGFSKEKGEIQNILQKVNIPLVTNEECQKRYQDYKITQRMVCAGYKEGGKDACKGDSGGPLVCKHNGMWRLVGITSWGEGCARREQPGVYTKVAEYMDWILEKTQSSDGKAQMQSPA

`O=C(NCc1ncn2ccc(Cl)cc12)c1cnn(Cc2cc3cc(C4CC4)ccn3n2)c1`: the EC50 is below 1 nM.

A word on the EC50: it is the concentration giving half of the maximal effect.

The values are drawn from ChEMBL document CHEMBL5729147, “Inhibitors of plasma kallikrein and uses thereof” (2022).
